# Assay results reported in US20240287133A1, “PEPTIDE HAVING ACTIVITY OF PREVENTING HAIR LOSS OR PROMOTING HAIR GROWTH, AND USE THEREOF” (CAREGEN CO., LTD., priority 2021, published 2024).
# Assays:
# Assay type in all cases: cell-based, human
# HHFDPC = assay: MTT proliferation of dermal papilla cells; conditions: peptide 500 nM, 5 μM, 50 μM, 72 hours, vs untreated control, FIG. 1
# Experimental: While culturing human hair follicle dermal dermal papilla cells (HHFDPC), the absorbance was measured after treatment with the peptide of the present invention to confirm whether there was an effect of promoting the proliferation of the HHFDPC dermal papilla cells.
# Specifically, HHFDPC (Sciencell, USA) was seeded at 4×10^3 cells/well in a 96-well culture plate, cultured in MSC complete medium (mesenchymal stem cell complete media, Sciencell, USA) for 24 hours, and then the medium was replaced with serum free MSC complete medium and cultured for another 24 hours. Then, the HHFDPC was treated with the peptide of SEQ ID NO: 1 prepared in the Preparation Example at concentrations of 500 nM, 5 µM, and 50 μM, respectively, and cultured at 37° C. for 72 hours. As a positive control, minoxidil was treated at a concentration of 1 μM, and as a negative control, HHFDPC without any treatment was used. Then, 10 ? of 5 mg/mL MTT solution was added and cultured in a 37° C. CO2 incubator for 4 hours to stain the cells. After removing the medium, the cells were treated with 100 μl of DMSO and shaken for 10 minutes, and the number of HHFDPC cells was confirmed by measuring absorbance at a wavelength of 540 nm using a spectrophotometer.
# p-AKT = assay: Western blotting of phosphorylated AKT in HHFDPC; conditions: peptide 500 nM, 5 μM, 50 μM, 24 hours, vs control not treated with the peptide, FIG. 2
# Experimental: (§1) First, phosphorylated forms of AKT and ERK, which act as signaling molecules related to the proliferation of HHFDPC, were confirmed through Western blotting. Specifically, HHFDPC as in [Experiment Example 1-1] above was seeded at 4×10^5 cells/well in a 6-well culture plate, cultured in MSC complete medium (mesenchymal stem cell complete media) for 24 hours, and then the medium was replaced with serum free MSC complete medium and cultured for another 24 hours. Then, the HHFDPC was treated with the peptide of SEQ ID NO: 1 prepared in the Preparation Example at concentrations of 500 nM, 5 μM, and 50 µM, respectively, and cultured at 37° C. for 24 hours. As a positive control, minoxidil was treated at a concentration of 1 μM, and as a negative control, HHFDPC without any treatment was used. Then, Western blotting was performed to detect phosphorylated AKT and phosphorylated ERK. After washing with PBS, the cells were treated with 100 ? of lysis buffer to destroy cells, thereby obtaining cell lysate. After electrophoresis using a 10% SDS-PAGE gel, it was transferred to a PVDF membrane and blocked using 5% skim milk at room temperature for 30 minutes. […] After washing again with 0.1% PBS-T (0.1% Tween-20 in PBS) three times for 15 minutes each, p-AKT and p-ERK were detected by treatment with ECL solution (GE Healthcare, USA).
# p-ERK = assay: Western blotting of phosphorylated ERK in HHFDPC; conditions: peptide 500 nM, 5 μM, 50 μM, 24 hours, vs control not treated with the peptide, FIG. 2
# Experimental: as §1
# β-catenin = assay: Western blotting of β-catenin moved into the nucleus of HHFDPC; conditions: HHFDPC nuclear protein, peptide 500 nM, 5 μM, 50 μM, 24 hours, vs control, FIG. 3
# Experimental: In addition, in addition to p-AKT and p-ERK, in order to confirm the activation of β-catenin, which is known to affect cell proliferation and differentiation, whether β-catenin moved into the nucleus was confirmed through Western blotting. Specifically, the HHFDPC as in [Experiment Example 1-1] was seeded in a 6-well culture plate at an amount of 4×10^5 cells/well, cultured in MSC complete medium (mesenchymal stem cell complete media) for 24 hours. Next, the medium was replaced with serum free MSC complete medium and cultured again for 24 hours. Then, the HHFDPC was treated with the peptide of SEQ ID NO: 1 prepared in the Preparation Example at concentrations of 500 nM, […], and 50 μM, respectively, and cultured at 37° C. for 24 hours. As a positive control, minoxidil was treated at a concentration of 1 μM, and as a negative control, HHFDPC without any treatment was used. After washing with PBS, proteins in the nucleus were isolated using a nuclear protein extraction kit (Thermo scientific, USA). After electrophoresis using a 10% SDS-PAGE gel, it was transferred to a PVDF membrane and blocked using 5% skim milk at room temperature for 30 minutes. […] After washing again with 0.1% PBS-T (0.1% Tween-20 in PBS) three times for 15 minutes each, β-catenin was detected by treatment with ECL solution (GE Healthcare, USA).
# LEF-1 = assay: RT-PCR of LEF-1 in HHFDPC; conditions: peptide 500 nM, 5 μM, 50 μM, 24 hours, vs control without treatment, FIG. 4
# Experimental: (§2) Furthermore, in order to determine whether the β-catenin moves to the nucleus and is activated to affect proliferation and differentiation, whether the expression of LEF-1, c-Myc and cyclin D1 (cyclin D1), which act as downstream factors, increases with β-catenin activation was confirmed through RT-PCR. Specifically, in the same manner as the previous Western blotting experiment, HHFDPC cells were cultured, treated with the peptides of the Preparation Example of the present invention at concentrations of 500 nM, 5 μM, and 50 μM, respectively, and cultured at 37° C. for 24 hours. After washing the cells with PBS, RNA was isolated by treating them with 300 […] of easy blue (intron, Korea). Then, CDNA was synthesized using a cDNA synthesis kit (enzynomics, Korea) by quantifying it with nano drop, and PCR was performed using primers for LEF-1, c-Myc and cyclin D1 (base sequences of the primers are listed in Table 2 below) and PCR premix (enzynomics, Korea). Electrophoresis was performed on a 1.5% agarose gel, and then the mRNA of LEF-1 and cyclin D1 was detected using a band analysis system (Bio-Rad gel image system).
# c-Myc = assay: RT-PCR of c-Myc in HHFDPC; conditions: peptide 500 nM, 5 μM, 50 μM, 24 hours, vs control without treatment, FIG. 4
# Experimental: as §2
# cyclin D1 = assay: RT-PCR of cyclin D1 in HHFDPC; conditions: peptide 500 nM, 5 μM, 50 μM, 24 hours, vs control without treatment, FIG. 4
# Experimental: as §2
# DKK-1 protein = assay: Western blotting of DKK-1 protein in DHT-treated HHFDPC; conditions: HHFDPC with DHT 100 nM, peptide 500 nM, 5 μM, 50 μM, 24 hours, vs negative control (DHT only), FIG. 5
# Experimental: DKK-1 protein (dickkopf-related protein 1) is a hair loss-related protein known to be highly expressed in individuals with hair loss, especially male pattern hair loss, and its expression is known to be promoted by hormones such as DHT (Dihydrotestosterone). Accordingly, the expression of DKK-1 protein was induced by treating HHFDPC cells with DHT together with the peptide according to the Preparation Example of the present invention, and then the expression level of DKK-1 was measured through Western blotting to determine whether there was an effect of suppressing the expression of DKK-1 protein.
# Specifically, HHFDPC as in [Experiment Example 1-1] was seeded in a 6-well culture plate at 4×10^5 cells/well and then cultured in MSC complete medium (mesenchymal stem cell complete media) for 24 hours. Next, the medium was replaced with serum free MSC complete medium and cultured again for 24 hours. In addition, the HHFDPC was treated with the peptide of SEQ ID NO: 1 prepared in Preparation Example at concentrations of 500 nM, 5 μM, and 50 μM, respectively, and at this time, DHT, an expression inducer of DKK-1 protein, was simultaneously treated at a concentration of 100 nM and then cultured at 37° C. for 24 hours. […] After washing again with 0.1% PBS-T (0.1% Tween-20 in PBS) three times for 15 minutes each, DKK-1 protein was detected by treatment with ECL solution (GE Healthcare, USA).
# Ha3-II = assay: RT-PCR of Ha3-II in HHORSC; conditions: peptide 500 nM, 5 μM, 50 μM, 72 hours, vs control without treatment, FIG. 6
# Experimental: (§3) Specifically, HHORSC (human hair outer root sheath cell, Sciencell, USA) was seeded in a 6-well culture plate at 4×10^5 cells/well and then cultured in MSC complete medium (mesenchymal stem cell complete media) for 24 hours. Next, the medium was replaced with serum free MSC complete medium and cultured again for 24 hours. Then, the HHORSC was treated with the peptide of Preparation Example consisting of amino acid sequence of SEQ ID NO: 1 at concentrations of 500 nM, 5 μM, and 50 μM, respectively, and cultured at 37° C. for 72 hours. As a positive control, EGF was treated at a concentration of 50 nM, and as a negative control, HHORSC without any treatment was used. After washing with PBS, RNA was isolated by treating with 300 ? of easy blue (intron, Korea). Then, CDNA was synthesized using a cDNA synthesis kit (enzynomics, Korea) by quantification using nano drop, and PCR was performed using primer for Ha3-II, Keratin 14, and Keratin 19 (the base sequences of primer are listed in Table 3 below) and PCR premix (enzynomics, Korea). Electrophoresis was performed on a 1.5% agarose gel, and the mRNAs of Ha3-II, Keratin 14, and Keratin 19 were detected using a band analysis system (Bio-Rad gel image system).
# Keratin 14 = assay: RT-PCR of Keratin 14 in HHORSC; conditions: peptide 500 nM, 5 μM, 50 μM, 72 hours, vs control without treatment, FIG. 6
# Experimental: as §3
# Keratin 19 = assay: RT-PCR of Keratin 19 in HHORSC; conditions: peptide 500 nM, 5 μM, 50 μM, 72 hours, vs control without treatment, FIG. 6
# Experimental: as §3
# MSX2 = assay: RT-PCR of MSX2 in HHGMC; conditions: peptide 500 nM, 5 μM, 50 μM, 72 hours, vs untreated control, FIG. 7
# Experimental: Specifically, HHGMC (human hair germinal matrix cell, Sciencell, USA) was seeded in a 6-well culture plate at 4×10^5 cells/well and then cultured in MSC complete medium (mesenchymal stem cell complete media) for 24 hours. Next, the medium was replaced with serum free MSC complete medium and cultured again for 24 hours. Then, the HHGMC was treated with the peptide of SEQ ID NO: 1 prepared in the Preparation Example at concentrations of 500 nM, 5 μM, and 50 µM, respectively, and cultured at 37° C. for 72 hours. As a positive control, EGF was treated at a concentration of 50 nM, and as a negative control, HHGMC without any treatment was used. After washing with PBS, RNA was isolated by treating with 300 ? of easy blue (intron, Korea). Next, cDNA was synthesized using a cDNA synthesis kit (enzynomics, Korea) by quantification using nano drop, and PCR was performed using primers for MSX2 (base sequences of primers are listed in Table 4 below) and PCR premix (enzynomics, Korea). Electrophoresis was performed on a 1.5% agarose gel, and MSX2 mRNA was detected using a band analysis system (Bio-Rad gel image system).
sequence,measurement,setting,value
CPRHENPVC [the peptide of the present invention],"proliferation of HHFDPC (absorbance at 540 nm, MTT)",HHFDPC,the proliferation of HHFDPC was promoted
same,p-AKT phosphorylation,p-AKT,phosphorylation was found to be increased
same,p-ERK phosphorylation,p-ERK,phosphorylation was found to be increased
same,β-catenin moved into the nucleus,β-catenin,migration due to activation of β-catenin increased
same,LEF-1 mRNA,LEF-1,the amount of mRNA increased further
same,c-Myc mRNA,c-Myc,the amount of mRNA increased further
same,cyclin D1 mRNA,cyclin D1,the amount of mRNA increased further
same,amount of DKK-1 protein,DKK-1 protein,the amount of DKK-1 protein was found to be reduced
same,Ha3-II mRNA,Ha3-II,the amount of mRNA increased further
same,Keratin 14 mRNA,Keratin 14,the amount of mRNA increased further
same,Keratin 19 mRNA,Keratin 19,the amount of mRNA increased further
same,MSX2 mRNA,MSX2,the amount of mRNA increased further
